Tests used:
Type in all cases: functional, organism-based
[1] = tested on: Plasmodium falciparum; experiment: Antimalarial activity against chloroquine-,pyrimethamine-resistant Plasmodium falciparum W2 assessed as inhibition of [3H]hypoxanthine incorporation after 96 hrs by microtiter plate scintillation counting
[2] = tested on: Plasmodium falciparum; experiment: Antimalarial activity against chloroquine-sensitive Plasmodium falciparum D6 assessed as inhibition of [3H]hypoxanthine incorporation after 96 hrs by microtiter plate scintillation counting
[3] = tested on: Plasmodium falciparum; experiment: Antimalarial activity against multidrug-resistant Plasmodium falciparum TM91C235 assessed as inhibition of [3H]hypoxanthine incorporation after 96 hrs by microtiter plate scintillation counting

## CC[C@H]1OC(=O)[C@H](C)[C@@H](O[C@H]2C[C@@](C)(OC)[C@@H](O)[C@H](C)O2)[C@H](C)[C@@H](O[C@@H]2O[C@H](C)C[C@H](N(C)C)[C@H]2O)[C@](C)(O)C[C@@H](C)CN(CCCNC(=S)Nc2ccccc2F)[C@H](C)[C@@H](O)[C@]1(C)O
[1]
  IC50: 400 nM
[2]
  IC50: 987 nM
[3]
  IC50: 122 nM

## CC[C@H]1OC(=O)[C@H](C)[C@@H](O[C@H]2C[C@@](C)(OC)[C@@H](O)[C@H](C)O2)[C@H](C)[C@@H](O[C@@H]2O[C@H](C)C[C@H](N(C)C)[C@H]2O)[C@](C)(O)C[C@@H](C)CN(CCCNC(=S)N[C@H]2CCCC[C@H]2OCc2ccccc2)[C@H](C)[C@@H](O)[C@]1(C)O
[1]
  IC50: 274 nM
[2]
  IC50: 645 nM
[3]
  IC50: 126 nM

## CC[C@H]1OC(=O)[C@H](C)[C@@H](O[C@H]2C[C@@](C)(OC)[C@@H](O)[C@H](C)O2)[C@H](C)[C@@H](O[C@@H]2O[C@H](C)C[C@H](N(C)C)[C@H]2O)[C@](C)(O)C[C@@H](C)CN(CCCNC(=O)Nc2ccc(F)c(F)c2)[C@H](C)[C@@H](O)[C@]1(C)O
[1]
  IC50: 89.6 nM
[2]
  IC50: 300 nM
[3]
  IC50: 127 nM

## CC[C@H]1OC(=O)[C@H](C)[C@@H](O[C@H]2C[C@@](C)(OC)[C@@H](O)[C@H](C)O2)[C@H](C)[C@@H](O[C@@H]2O[C@H](C)C[C@H](N(C)C)[C@H]2O)[C@](C)(O)C[C@@H](C)CN(CCCNC(=S)Nc2ccc(Oc3ccccc3)nc2)[C@H](C)[C@@H](O)[C@]1(C)O
[1]
  IC50: 109 nM
[2]
  IC50: 215 nM
[3]
  IC50: 133 nM

## CC[C@H]1OC(=O)[C@H](C)[C@@H](O[C@H]2C[C@@](C)(OC)[C@@H](O)[C@H](C)O2)[C@H](C)[C@@H](O[C@@H]2O[C@H](C)C[C@H](N(C)C)[C@H]2O)[C@](C)(O)C[C@@H](C)CN(CCCNC(=O)Nc2cccc(SC)c2)[C@H](C)[C@@H](O)[C@]1(C)O
[1]
  IC50: 73.9 nM
[2]
  IC50: 332 nM
[3]
  IC50: 137 nM

## CC[C@H]1OC(=O)[C@H](C)[C@@H](O[C@H]2C[C@@](C)(OC)[C@@H](O)[C@H](C)O2)[C@H](C)[C@@H](O[C@@H]2O[C@H](C)C[C@H](N(C)C)[C@H]2O)[C@](C)(O)C[C@@H](C)CN(CCCNC(=O)Nc2ccccc2-c2ccccc2)[C@H](C)[C@@H](O)[C@]1(C)O
[1]
  IC50: 202 nM
[2]
  IC50: 254 nM
[3]
  IC50: 137 nM

## CC[C@H]1OC(=O)[C@H](C)[C@@H](O[C@H]2C[C@@](C)(OC)[C@@H](O)[C@H](C)O2)[C@H](C)[C@@H](O[C@@H]2O[C@H](C)C[C@H](N(C)C)[C@H]2O)[C@](C)(O)C[C@@H](C)CN(CCCNC(=O)Nc2ccc(OC)c(OC3CCCC3)c2)[C@H](C)[C@@H](O)[C@]1(C)O
[1]
  IC50: 201 nM
[2]
  IC50: 445 nM
[3]
  IC50: 138 nM

## CC[C@H]1OC(=O)[C@H](C)[C@@H](O[C@H]2C[C@@](C)(OC)[C@@H](O)[C@H](C)O2)[C@H](C)[C@@H](O[C@@H]2O[C@H](C)C[C@H](N(C)C)[C@H]2O)[C@](C)(O)C[C@@H](C)CN(CCCNC(=S)Nc2ccc(F)cc2)[C@H](C)[C@@H](O)[C@]1(C)O
[1]
  IC50: 72.8 nM
[2]
  IC50: 320 nM
[3]
  IC50: 139 nM

## CC[C@H]1OC(=O)[C@H](C)[C@@H](O[C@H]2C[C@@](C)(OC)[C@@H](O)[C@H](C)O2)[C@H](C)[C@@H](O[C@@H]2O[C@H](C)C[C@H](N(C)C)[C@H]2O)[C@](C)(O)C[C@@H](C)CN(CCCNC(=O)Nc2ccc(C)cc2)[C@H](C)[C@@H](O)[C@]1(C)O
[1]
  IC50: 88.7 nM
[2]
  IC50: 330 nM
[3]
  IC50: 139 nM

## CC[C@H]1OC(=O)[C@H](C)[C@@H](O[C@H]2C[C@@](C)(OC)[C@@H](O)[C@H](C)O2)[C@H](C)[C@@H](O[C@@H]2O[C@H](C)C[C@H](N(C)C)[C@H]2O)[C@](C)(O)C[C@@H](C)CN(CCCNC(=S)NC2CCCCCCCCCCC2)[C@H](C)[C@@H](O)[C@]1(C)O
[1]
  IC50: 85 nM
[2]
  IC50: 264 nM
[3]
  IC50: 140 nM

## CC[C@H]1OC(=O)[C@H](C)[C@@H](O[C@H]2C[C@@](C)(OC)[C@@H](O)[C@H](C)O2)[C@H](C)[C@@H](O[C@@H]2O[C@H](C)C[C@H](N(C)C)[C@H]2O)[C@](C)(O)C[C@@H](C)CN(CCCNC(=O)NCC2CCCCC2)[C@H](C)[C@@H](O)[C@]1(C)O
[1]
  IC50: 113 nM
[2]
  IC50: 610 nM
[3]
  IC50: 142 nM

## CC[C@H]1OC(=O)[C@H](C)[C@@H](O[C@H]2C[C@@](C)(OC)[C@@H](O)[C@H](C)O2)[C@H](C)[C@@H](O[C@@H]2O[C@H](C)C[C@H](N(C)C)[C@H]2O)[C@](C)(O)C[C@@H](C)CN(CCCNC(=O)Nc2ccc(OCc3ccccc3)cc2)[C@H](C)[C@@H](O)[C@]1(C)O
[1]
  IC50: 175 nM
[2]
  IC50: 299 nM
[3]
  IC50: 146 nM

## CC[C@H]1OC(=O)[C@H](C)[C@@H](O[C@H]2C[C@@](C)(OC)[C@@H](O)[C@H](C)O2)[C@H](C)[C@@H](O[C@@H]2O[C@H](C)C[C@H](N(C)C)[C@H]2O)[C@](C)(O)C[C@@H](C)CN(CCCNC(=S)NCC23CC4CC(CC(C4)C2)C3)[C@H](C)[C@@H](O)[C@]1(C)O
[1]
  IC50: 210 nM
[2]
  IC50: 553 nM
[3]
  IC50: 152 nM

## CC[C@H]1OC(=O)[C@H](C)[C@@H](O[C@H]2C[C@@](C)(OC)[C@@H](O)[C@H](C)O2)[C@H](C)[C@@H](O[C@@H]2O[C@H](C)C[C@H](N(C)C)[C@H]2O)[C@](C)(O)C[C@@H](C)CN(CCCNC(=S)Nc2ccc(OCc3ccccc3)cc2)[C@H](C)[C@@H](O)[C@]1(C)O
[1]
  IC50: 88.9 nM
[2]
  IC50: 249 nM
[3]
  IC50: 160 nM

## CC[C@H]1OC(=O)[C@H](C)[C@@H](O[C@H]2C[C@@](C)(OC)[C@@H](O)[C@H](C)O2)[C@H](C)[C@@H](O[C@@H]2O[C@H](C)C[C@H](N(C)C)[C@H]2O)[C@](C)(O)C[C@@H](C)CN(CCCNC(=O)Nc2cccc(F)c2)[C@H](C)[C@@H](O)[C@]1(C)O
[1]
  IC50: 285 nM
[2]
  IC50: 580 nM
[3]
  IC50: 164 nM

## CC[C@H]1OC(=O)[C@H](C)[C@@H](O[C@H]2C[C@@](C)(OC)[C@@H](O)[C@H](C)O2)[C@H](C)[C@@H](O[C@@H]2O[C@H](C)C[C@H](N(C)C)[C@H]2O)[C@](C)(O)C[C@@H](C)CN(CCCNC(=S)Nc2ccc(C)cc2)[C@H](C)[C@@H](O)[C@]1(C)O
[1]
  IC50: 71.3 nM
[2]
  IC50: 330 nM
[3]
  IC50: 164 nM

## CC[C@H]1OC(=O)[C@H](C)[C@@H](O[C@H]2C[C@@](C)(OC)[C@@H](O)[C@H](C)O2)[C@H](C)[C@@H](O[C@@H]2O[C@H](C)C[C@H](N(C)C)[C@H]2O)[C@](C)(O)C[C@@H](C)CN(CCCNC(=S)Nc2ccc3c(c2)OCO3)[C@H](C)[C@@H](O)[C@]1(C)O
[1]
  IC50: 182 nM
[2]
  IC50: 329 nM
[3]
  IC50: 173 nM

## CC[C@H]1OC(=O)[C@H](C)[C@@H](O[C@H]2C[C@@](C)(OC)[C@@H](O)[C@H](C)O2)[C@H](C)[C@@H](O[C@@H]2O[C@H](C)C[C@H](N(C)C)[C@H]2O)[C@](C)(O)C[C@@H](C)CN(CCCNC(=S)Nc2ccc(Br)cc2)[C@H](C)[C@@H](O)[C@]1(C)O
[1]
  IC50: 169 nM
[2]
  IC50: 261 nM
[3]
  IC50: 173 nM

## CC[C@H]1OC(=O)[C@H](C)[C@@H](O[C@H]2C[C@@](C)(OC)[C@@H](O)[C@H](C)O2)[C@H](C)[C@@H](O[C@@H]2O[C@H](C)C[C@H](N(C)C)[C@H]2O)[C@](C)(O)C[C@@H](C)CN(CCCNC(=S)Nc2ccc(N(C)C)c3ccccc23)[C@H](C)[C@@H](O)[C@]1(C)O
[1]
  IC50: 175 nM
[2]
  IC50: 326 nM
[3]
  IC50: 180 nM

## CC[C@H]1OC(=O)[C@H](C)[C@@H](O[C@H]2C[C@@](C)(OC)[C@@H](O)[C@H](C)O2)[C@H](C)[C@@H](O[C@@H]2O[C@H](C)C[C@H](N(C)C)[C@H]2O)[C@](C)(O)C[C@@H](C)CN(CCCNC(=S)NC2CC3C=CC2C3)[C@H](C)[C@@H](O)[C@]1(C)O (stereo partly drawn)
[1]
  IC50: 173 nM
[2]
  IC50: 302 nM
[3]
  IC50: 183 nM

## CC[C@H]1OC(=O)[C@H](C)[C@@H](O[C@H]2C[C@@](C)(OC)[C@@H](O)[C@H](C)O2)[C@H](C)[C@@H](O[C@@H]2O[C@H](C)C[C@H](N(C)C)[C@H]2O)[C@](C)(O)C[C@@H](C)CN(CCCNC(=O)NC(C)(C)CC(C)(C)C)[C@H](C)[C@@H](O)[C@]1(C)O
[1]
  IC50: 78.4 nM
[2]
  IC50: 269 nM
[3]
  IC50: 183 nM

## CC[C@H]1OC(=O)[C@H](C)[C@@H](O[C@H]2C[C@@](C)(OC)[C@@H](O)[C@H](C)O2)[C@H](C)[C@@H](O[C@@H]2O[C@H](C)C[C@H](N(C)C)[C@H]2O)[C@](C)(O)C[C@@H](C)CN(CCCNC(=S)Nc2c(F)cccc2F)[C@H](C)[C@@H](O)[C@]1(C)O
[1]
  IC50: 86.3 nM
[2]
  IC50: 509 nM
[3]
  IC50: 188 nM

## CC[C@H]1OC(=O)[C@H](C)[C@@H](O[C@H]2C[C@@](C)(OC)[C@@H](O)[C@H](C)O2)[C@H](C)[C@@H](O[C@@H]2O[C@H](C)C[C@H](N(C)C)[C@H]2O)[C@](C)(O)C[C@@H](C)CN(CCCNC(=O)Nc2ccc(C#N)cc2)[C@H](C)[C@@H](O)[C@]1(C)O
[1]
  IC50: 98.3 nM
[2]
  IC50: 386 nM
[3]
  IC50: 206 nM

## CC[C@H]1OC(=O)[C@H](C)[C@@H](O[C@H]2C[C@@](C)(OC)[C@@H](O)[C@H](C)O2)[C@H](C)[C@@H](O[C@@H]2O[C@H](C)C[C@H](N(C)C)[C@H]2O)[C@](C)(O)C[C@@H](C)CN(CCCNC(=S)Nc2ccc(OC)cc2)[C@H](C)[C@@H](O)[C@]1(C)O
[1]
  IC50: 77 nM
[2]
  IC50: 480 nM
[3]
  IC50: 209 nM

## CC[C@H]1OC(=O)[C@H](C)[C@@H](O[C@H]2C[C@@](C)(OC)[C@@H](O)[C@H](C)O2)[C@H](C)[C@@H](O[C@@H]2O[C@H](C)C[C@H](N(C)C)[C@H]2O)[C@](C)(O)C[C@@H](C)CN(CCCNC(=S)NCc2ccc3c(c2)OCO3)[C@H](C)[C@@H](O)[C@]1(C)O
[1]
  IC50: 137 nM
[2]
  IC50: 319 nM
[3]
  IC50: 216 nM

## CC[C@H]1OC(=O)[C@H](C)[C@@H](O[C@H]2C[C@@](C)(OC)[C@@H](O)[C@H](C)O2)[C@H](C)[C@@H](O[C@@H]2O[C@H](C)C[C@H](N(C)C)[C@H]2O)[C@](C)(O)C[C@@H](C)CN(CCCNC(=O)Nc2cc(F)cc3c2OCOC3)[C@H](C)[C@@H](O)[C@]1(C)O
[1]
  IC50: 306 nM
[2]
  IC50: 284 nM
[3]
  IC50: 220 nM
